Read-outs that look alike come from different tables or passages of the source.
Tested on: β-amyloid peptide formation in human H4 cells
Experiment: Inhibition of β-amyloid peptide (Aβ) formation in H4 cells overexpressing HPLAP-APP fusion protein
Assay type: cell-based
Procedure: γ-Secretase inhibitors were also evaluated using in vitro assays based on the inhibition of Aβ formation in cultured cells. Cultured human cell lines, such as HEK293 and H4 cells, which express APP and γ-secretase activity or transfected derivative cell lines that overexpress wild-type APP, mutant APP, or APP fusion proteins will secrete Aβ peptides into the culture media that can be quantified as previously outlined (Dovey, H. et al., J. Neurochem. 2001, 76, 173). The incubation of these cultured cells with γ-secretase inhibitors decreases the production of Aβ peptides. For instance, H4 cells stably transfected to overexpress the HPLAP-APP fusion protein described above were grown as above, detached, and adjusted to 2×10^5 cells/ml. 100 μl of the resulting suspension was then added to each well of a 96-well plate. After 4 hrs, the media was removed and replaced with 100 μl serum-free media containing various dilutions of the test compound. Plates were then incubated for 18 hrs at 37° C. and a 100 μl aliquot of the tissue culture supernatant was removed for determination of Aβ levels using time-resolved fluorescence of the homogenous sample as outlined above. The extent of Aβ inhibition was used to calculate the IC50 value for the test compound.
Representative compounds were evaluated in the above assay and were determined to inhibit Aβ formation.

[1] = class symbol, read-out: Binding affinity (IC50 in nM), activity class
[2] = number in parentheses, read-out: Binding affinity (IC50 in nM)

CC(C)(C)OC(=O)c1ccc(CN(C(C(N)=O)c2cc(F)cc(F)c2)S(=O)(=O)c2ccc(Cl)cc2)cc1 (stereo not drawn) [Example 1, α-[(4-Chlorobenzenesulfonyl)((4-t-butyloxycarbonylphenyl)methyl)amino]-3,5-difluorobenzeneacetamide]
IC50 [1]: 0.25 to 50 nM

NC(=O)C(c1cc(F)cc(F)c1)N(Cc1ccc(C(=O)O)cc1)S(=O)(=O)c1ccc(Cl)cc1 (stereo not drawn) [Example 2, α-[(4-Chlorobenzenesulfonyl)((4-carboxyphenyl)methyl)amino]-3,5-difluorobenzene-acetamide]
IC50 [1]: 50 to 500 nM | IC50 [2]: 116 nM

CCNC(=O)c1ccc(CN(C(C(N)=O)c2cc(F)cc(F)c2)S(=O)(=O)c2ccc(Cl)cc2)cc1 (stereo not drawn) [Example 3, α-[(4-Chlorobenzenesulfonyl)((4-ethylaminocarbonylphenyl)methyl)amino]-3,5-difluorobenzeneacetamide]
IC50 [1]: 0.25 to 50 nM | IC50 [2]: 1.28 nM

CC(C)(C)NC(=O)c1ccc(CN(C(C(N)=O)c2cc(F)cc(F)c2)S(=O)(=O)c2ccc(Cl)cc2)cc1 (stereo not drawn) [Example 4, α-[(4-Chlorobenzenesulfonyl)(4-t-butylaminocarbonylphenylmethyl)amino]-3,5-difluorobenzeneacetamide]
IC50 [1]: 0.25 to 50 nM

NC(=O)C(c1cc(F)cc(F)c1)N(Cc1ccc(C(=O)N2CCC2)cc1)S(=O)(=O)c1ccc(Cl)cc1 (stereo not drawn) [Example 5, α-[(4-Chlorobenzenesulfonyl)(4-azetidinylcarbonylphenylmethyl)amino]-3,5-difluorobenzene-acetamide]
IC50 [1]: 0.25 to 50 nM

CNC(=O)c1ccc(CN(C(C(N)=O)c2cc(F)cc(F)c2)S(=O)(=O)c2ccc(Cl)cc2)cc1 (stereo not drawn) [Example 6, α-[(4-Chlorobenzenesulfonyl)(4-methylaminocarbonylphenylmethyl)amino]-3,5-difluorobenzene-acetamide]
IC50 [1]: 0.25 to 50 nM

NC(=O)C(c1cc(F)cc(F)c1)N(Cc1ccc(C(=O)NC2CCC2)cc1)S(=O)(=O)c1ccc(Cl)cc1 (stereo not drawn) [Example 8]
IC50 [1]: 0.25 to 50 nM | IC50 [2]: 0.93 nM

CCN1CCc2cc(CN(C(C(N)=O)c3cc(F)cc(F)c3)S(=O)(=O)c3ccc(Cl)cc3)ccc2C1=O (stereo not drawn) [Example 9, α-[(4-Chlorobenzenesulfonyl)(1-oxo-2-ethyl-1,2,3,4-tetrahydroisoquinolin-6-ylmethyl)amino]-3,5-difluorobenzeneacetamide]
IC50 [1]: 0.25 to 50 nM

NC(=O)C(c1cc(F)cc(F)c1)N(Cc1ccc(-n2cncn2)cc1)S(=O)(=O)c1ccc(Cl)cc1 (stereo not drawn) [Example 11, α-[(4-Chlorobenzenesulfonyl)(4-(1,2,4-triazolyl)-phenylmethyl)amino]-3,5-difluorobenzene-acetamide]
IC50 [1]: 0.25 to 50 nM

NC(=O)C(c1cc(F)cc(F)c1)N(Cc1ccc(-n2cccn2)cc1)S(=O)(=O)c1ccc(Cl)cc1 (stereo not drawn) [Example 12, α-[(4-Chlorobenzenesulfonyl)(4-pyrazolylphenylmethyl)amino]-3,5-difluorobenzene-acetamide]
IC50 [1]: 0.25 to 50 nM | IC50 [2]: 9.15 nM

NC(=O)C(c1cc(F)cc(F)c1)N(Cc1ccc(F)cc1)S(=O)(=O)c1ccc(Cl)cc1 (stereo not drawn) [Example 14, α-[(4-Chlorobenzenesulfonyl)(4-fluorophenylmethyl)amino]-3,5-difluorobenzene-acetamide]
IC50 [1]: 0.25 to 50 nM

N#Cc1ccc(CN(C(C(N)=O)c2cc(F)cc(F)c2)S(=O)(=O)c2ccc(Cl)cc2)cc1 (stereo not drawn) [Example 16, α-[(4-Chlorobenzenesulfonyl)(4-cyanophenylmethyl)amino]-3,5-difluorobenzene-acetamide]
IC50 [1]: 0.25 to 50 nM | IC50 [2]: 12.4 nM

Cc1nc(-c2ccc(CN(C(C(N)=O)c3cc(F)cc(F)c3)S(=O)(=O)c3ccc(Cl)cc3)cc2)no1 (stereo not drawn) [Example 18]
IC50 [1]: 0.25 to 50 nM

NC(=O)C(c1cc(F)cc(F)c1)N(Cc1ccc(-c2ncon2)cc1)S(=O)(=O)c1ccc(Cl)cc1 (stereo not drawn) [Example 19]
IC50 [1]: 0.25 to 50 nM

CCNC(=O)c1ccc(CN(C(C(N)=O)c2ccccc2C)S(=O)(=O)c2ccc(Cl)cc2)cc1 (stereo not drawn) [Example 31, α-[(4-Chlorobenzenesulfonyl)((4-ethylaminocarbonylphenyl)methyl)amino]-2-methylbenzene-acetamide]
IC50 [1]: 50 to 500 nM | IC50 [2]: 127 nM
